Measured values published in ChEMBL document CHEMBL1201862, “PubChem BioAssay data set” (2004).
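96-well plates; 48 h exposure; 5 concentrations. Endpoints by linear interpolation between flanking doses. Not reached: highest tested concentration assigned. GI50 = concentration required for 50% inhibition of growth.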 Calls of active or inactive are those of the source. No stated cut-off is given here; in the data, active = GI50 up to about 1.1 µM and inactive = higher.

How the values were obtained:
Test in all cases: NCI anticancer screen, dose series, 48 h
786-0 = test system: 786-0
A549 = test system: A549
ACHN = test system: ACHN
CAKI-1 = test system: CAKI-1
CCRF-CEM = test system: CCRF-CEM
COLO 205 = test system: COLO 205
DLD-1 = test system: DLD-1
DMS-114 = test system: DMS-114
DMS-273 = test system: DMS-273
EKVX = test system: EKVX
HCC 2998 = test system: HCC 2998
HCT-116 = test system: HCT-116
HCT-15 = test system: HCT-15
HL-60 = test system: HL-60
HOP-18 = test system: HOP-18
HOP-62 = test system: HOP-62
HOP-92 = test system: HOP-92
HT-29 = test system: HT-29
IGROV-1 = test system: IGROV-1
K562 = test system: K562
KM-20L2 = test system: KM-20L2
KM12 = test system: KM12
LOX IMVI = test system: LOX IMVI
LXFL 529 = test system: LXFL 529
M14 = test system: M14
M19-MEL = test system: M19-MEL
MOLT-4 = test system: MOLT-4
Malme-3M = test system: Malme-3M
NCI-H226 = test system: NCI-H226
NCI-H23 = test system: NCI-H23
NCI-H460 = test system: NCI-H460
OVCAR-3 = test system: OVCAR-3
OVCAR-4 = test system: OVCAR-4
OVCAR-5 = test system: OVCAR-5
OVCAR-8 = test system: OVCAR-8
RPMI-8226 = test system: RPMI-8226
RXF 393 = test system: RXF 393
RXF 631 = test system: RXF 631
SF-268 = test system: SF-268
SF-295 = test system: SF-295
SF-539 = test system: SF-539
SK-MEL-28 = test system: SK-MEL-28
SK-MEL-2 = test system: SK-MEL-2
SK-MEL-5 = test system: SK-MEL-5
SK-OV-3 = test system: SK-OV-3
SN12C = test system: SN12C
SNB-19 = test system: SNB-19
SNB-75 = test system: SNB-75
SNB-78 = test system: SNB-78
SR = test system: SR
SW-620 = test system: SW-620
TK-10 = test system: TK-10
U-251 = test system: U-251
UACC-257 = test system: UACC-257
UACC-62 = test system: UACC-62
UO-31 = test system: UO-31
NCI-H522 = test system: NCI-H522
XF498 = test system: XF498
A498 = test system: A498

In the case of `CC[P+]1(c2ccccc2)CCCCC1`, the GI50 (786-0) is reported as > 100 µM (inactive), the GI50 (A549) is reported as > 100 µM (inactive) and the GI50 (ACHN) is reported as > 100 µM (inactive). The GI50 (CAKI-1) was > 100 µM (inactive), the GI50 (CCRF-CEM) was > 100 µM (inactive) and the GI50 (COLO 205) was > 100 µM (inactive). For the same compound, the GI50 (DLD-1) was > 100 µM (inactive), the GI50 (DMS-114) was > 100 µM (inactive) and the GI50 (DMS-273) was > 100 µM (inactive). The GI50 (EKVX) was > 100 µM (inactive), the GI50 (HCC 2998) was > 100 µM (inactive) and the GI50 (HCT-116) was > 100 µM (inactive). For the same compound, the GI50 (HCT-15) was greater than 100 µM, the GI50 (HL-60) was > 100 µM (inactive) and the GI50 (HOP-18) was > 100 µM (inactive). For the same compound, the GI50 (HOP-62) was > 100 µM (inactive), the GI50 (HOP-92) was > 100 µM (inactive) and the GI50 (HT-29) was > 100 µM (inactive). For the same compound, the GI50 (IGROV-1) was > 100 µM (inactive), the GI50 (K562) was > 100 µM (inactive) and the GI50 (KM-20L2) was > 100 µM (inactive). For the same compound, the GI50 (KM12) was > 100 µM (inactive), the GI50 (LOX IMVI) was > 100 µM (inactive) and the GI50 (LXFL 529) was > 100 µM (inactive). For the same compound, the GI50 (M14) was > 100 µM (inactive), the GI50 (M19-MEL) was > 100 µM (inactive) and the GI50 (MOLT-4) was > 100 µM (inactive). The GI50 (Malme-3M) was > 100 µM (inactive), the GI50 (NCI-H226) was > 100 µM (inactive) and the GI50 (NCI-H23) was > 100 µM (inactive). The GI50 (NCI-H460) was > 100 µM (inactive), the GI50 (OVCAR-3) was > 100 µM (inactive) and the GI50 (OVCAR-4) was > 100 µM (inactive). The GI50 (OVCAR-5) was > 100 µM (inactive), the GI50 (OVCAR-8) was > 100 µM (inactive) and the GI50 (RPMI-8226) was > 100 µM (inactive). The GI50 (RXF 393) was > 100 µM (inactive), the GI50 (RXF 631) was > 100 µM (inactive) and the GI50 (SF-268) was > 100 µM (inactive). For the same compound, the GI50 (SF-295) was > 100 µM (inactive), the GI50 (SF-539) was > 100 µM (inactive) and the GI50 (SK-MEL-28) was > 100 µM (inactive). For the same compound, the GI50 (SK-MEL-2) was > 100 µM (inactive), the GI50 (SK-MEL-5) was > 100 µM (inactive) and the GI50 (SK-OV-3) was > 100 µM (inactive). For the same compound, the GI50 (SN12C) was > 100 µM (inactive), the GI50 (SNB-19) was > 100 µM (inactive) and the GI50 (SNB-75) was > 100 µM (inactive). The GI50 (SNB-78) was > 100 µM (inactive), the GI50 (SR) was > 100 µM (inactive) and the GI50 (SW-620) was > 100 µM (inactive). The GI50 (TK-10) was > 100 µM (inactive), the GI50 (U-251) was > 100 µM (inactive) and the GI50 (UACC-257) was > 100 µM (inactive). The GI50 (UACC-62) was > 100 µM (inactive) and the GI50 (UO-31) was > 100 µM (inactive).
`Cc1c2ccncc2c(C)c2c1[nH]c1ccc(OCC(F)(F)F)cc12` was tested, and the GI50 (786-0) was 1.47 µM (inactive), the GI50 (A549) was 1.79 µM (inactive) and the GI50 (ACHN) was 1.55 µM (inactive). The GI50 (CAKI-1) was 2.11 µM (inactive), the GI50 (CCRF-CEM) was 1.21 µM (inactive) and the GI50 (COLO 205) was 1.55 µM (inactive). For the same compound, the GI50 (DLD-1) was 1.57 µM (inactive), the GI50 (DMS-114) was 1.84 µM (inactive) and the GI50 (DMS-273) was 0.82 µM (active). For the same compound, the GI50 (EKVX) was 1.61 µM (inactive), the GI50 (HCT-116) was 1.08 µM (active) and the GI50 (HCT-15) was 1.05 µM. The GI50 (HL-60) was 2.08 µM (inactive), the GI50 (HOP-62) was 1.63 µM (inactive) and the GI50 (HOP-92) was 2.23 µM (inactive). For the same compound, the GI50 (HT-29) was 1.53 µM (inactive), the GI50 (IGROV-1) was 1.61 µM (inactive) and the GI50 (K562) was 1.08 µM (active). The GI50 (KM-20L2) was 1.47 µM (inactive), the GI50 (KM12) was 1.36 µM (inactive) and the GI50 (LOX IMVI) was 1.61 µM (inactive). For the same compound, the GI50 (LXFL 529) was 1.2 µM (inactive), the GI50 (M14) was 1.96 µM (inactive) and the GI50 (M19-MEL) was 1.84 µM (inactive). For the same compound, the GI50 (MOLT-4) was 0.824 µM (active), the GI50 (Malme-3M) was 1.73 µM (inactive) and the GI50 (NCI-H226) was 1.83 µM (inactive). The GI50 (NCI-H23) was 1.71 µM (inactive), the GI50 (NCI-H460) was 1.18 µM (inactive) and the GI50 (NCI-H522) was 1.65 µM (inactive). For the same compound, the GI50 (OVCAR-3) was 1.85 µM (inactive), the GI50 (OVCAR-4) was 2.03 µM (inactive) and the GI50 (OVCAR-5) was 1.53 µM (inactive). For the same compound, the GI50 (OVCAR-8) was 1.32 µM (inactive), the GI50 (RPMI-8226) was 2.27 µM (inactive) and the GI50 (RXF 393) was 1.9 µM (inactive). For the same compound, the GI50 (RXF 631) was 1.57 µM (inactive), the GI50 (SF-268) was 1.55 µM (inactive) and the GI50 (SF-295) was 1.63 µM (inactive). The GI50 (SF-539) was 1.75 µM (inactive), the GI50 (SK-MEL-28) was 1.73 µM (inactive) and the GI50 (SK-MEL-2) was 1.58 µM (inactive). For the same compound, the GI50 (SK-MEL-5) was 1.91 µM (inactive), the GI50 (SK-OV-3) was 1.82 µM (inactive) and the GI50 (SN12C) was 1.37 µM (inactive). For the same compound, the GI50 (SNB-19) was 1.64 µM (inactive), the GI50 (SNB-75) was 2.17 µM (inactive) and the GI50 (SNB-78) was 2.92 µM (inactive). For the same compound, the GI50 (SR) was 0.828 µM (active), the GI50 (SW-620) was 0.619 µM (active) and the GI50 (TK-10) was 2.1 µM (inactive). For the same compound, the GI50 (U-251) was 1.6 µM (inactive), the GI50 (UACC-257) was 1.89 µM (inactive) and the GI50 (UO-31) was 1.73 µM (inactive). For the same compound, the GI50 (XF498) was 1.61 µM (inactive).
`N=C(N)NS(=O)(=O)c1ccc(NC(=O)c2cccc3c(N)c4ccccc4nc23)cc1` was tested, and the GI50 (786-0) was > 100 µM (inactive), the GI50 (A498) was > 100 µM (inactive) and the GI50 (A549) was > 100 µM (inactive). The GI50 (ACHN) was > 100 µM (inactive), the GI50 (CAKI-1) was > 100 µM (inactive) and the GI50 (CCRF-CEM) was 92.3 µM (inactive). The GI50 (COLO 205) was > 100 µM (inactive), the GI50 (DLD-1) was > 100 µM (inactive) and the GI50 (DMS-114) was 61.2 µM (inactive). For the same compound, the GI50 (DMS-273) was > 100 µM (inactive), the GI50 (EKVX) was > 100 µM (inactive) and the GI50 (HCC 2998) was > 100 µM (inactive). For the same compound, the GI50 (HCT-116) was > 100 µM (inactive), the GI50 (HCT-15) was greater than 100 µM and the GI50 (HOP-62) was > 100 µM (inactive). The GI50 (IGROV-1) was > 100 µM (inactive), the GI50 (K562) was > 100 µM (inactive) and the GI50 (KM-20L2) was 68.2 µM (inactive). For the same compound, the GI50 (KM12) was 8.57 µM (inactive), the GI50 (LOX IMVI) was > 100 µM (inactive) and the GI50 (LXFL 529) was 60.1 µM (inactive). For the same compound, the GI50 (M14) was > 100 µM (inactive), the GI50 (M19-MEL) was > 100 µM (inactive) and the GI50 (MOLT-4) was 42 µM (inactive). For the same compound, the GI50 (Malme-3M) was > 100 µM (inactive), the GI50 (NCI-H226) was > 100 µM (inactive) and the GI50 (NCI-H23) was > 100 µM (inactive). For the same compound, the GI50 (NCI-H460) was > 100 µM (inactive), the GI50 (NCI-H522) was > 100 µM (inactive) and the GI50 (OVCAR-3) was 84.9 µM (inactive). The GI50 (OVCAR-4) was > 100 µM (inactive), the GI50 (OVCAR-5) was > 100 µM (inactive) and the GI50 (OVCAR-8) was > 100 µM (inactive). The GI50 (RPMI-8226) was > 100 µM (inactive), the GI50 (RXF 393) was > 100 µM (inactive) and the GI50 (RXF 631) was > 100 µM (inactive). The GI50 (SF-268) was > 100 µM (inactive), the GI50 (SF-295) was > 100 µM (inactive) and the GI50 (SF-539) was > 100 µM (inactive). For the same compound, the GI50 (SK-MEL-28) was > 100 µM (inactive), the GI50 (SK-MEL-2) was > 100 µM (inactive) and the GI50 (SK-MEL-5) was > 100 µM (inactive). The GI50 (SK-OV-3) was > 100 µM (inactive), the GI50 (SN12C) was > 100 µM (inactive) and the GI50 (SNB-19) was 26.7 µM (inactive). The GI50 (SNB-75) was 96.2 µM (inactive), the GI50 (SNB-78) was > 100 µM (inactive) and the GI50 (SW-620) was > 100 µM (inactive). The GI50 (TK-10) was > 100 µM (inactive), the GI50 (U-251) was 99.8 µM (inactive) and the GI50 (UACC-257) was > 100 µM (inactive). For the same compound, the GI50 (UACC-62) was > 100 µM (inactive), the GI50 (UO-31) was 55.8 µM (inactive) and the GI50 (XF498) was > 100 µM (inactive).
